# According to US20040191907A1, “Cultured cells of Ficus stipulata Thunb. (=Ficus thunbergii) and a method for culturing tissues of the Ficus stipulata Thunb. by using said cultured cells” (HIROSHIMA UNIVERSITY, priority 2001, published 2004):
# Legend:
# [1] = test system: cut pieces of the leaf, shoot and root tissues of the Ficus stipulata Thunb.; experiment: Experiment 1: polyblast formation from cut pieces cultured on medium containing thidiazuron and/or benzyladenine; assay type: cell-based; details: for Number of cut piece* (cut pieces with polyblast formation × 100/cut piece) / Number of shoots/cut piece: one month after the culturing; for induction of the Ficus stipulata Thunb. (polyblast formation / redifferentiation): culture medium containing at least one of TDZ and/or BA
# Experimental: A culture medium in which the MS culture medium or the WP culture medium was used as a fundamental culture medium and 1% sucrose and 0.3% Gellan Gum were added as the carbonaceuous source and a gelling agent, respectively, was used.
# Cut pieces, 0.5˜1 mm long, were prepared from leaf, shoot and root tissues of the Ficus stipulata Thunb. asepatically cultured. The cut pieces of the leaf, shoot and root tissues of the Ficus stipulata Thunb. thus prepared were implanted on a culture medium containing thidiazuron and/or benzyladenine as plant hormones, thereby culturing the Ficus stipulata Thunb. One month after the culturing, it was observed that polyblasts were formed from the cut pieces. The polyblasts were cut out, their cut edge were coated with iondoleacetic acid, and the polyblasts were implanted into the above culture medium or a culture containing pearlite and vermiculite, and allowed to take roots.
# [2] = test system: cut pieces from stem apexes, nodes and stem portions of Ficus stipulata Thunb.; experiment: Experiment 2: redifferentiation condition, polyblasts and buds formed at stem apex cut pieces; assay type: cell-based; details: for Number of cut pieces* in which polyflasts were formed at a stem apex: of 4 cut pieces; for Number of cut pieces* in which polyflasts were formed at a stem apex / Number of buds formed: six weeks; for Number of buds formed: stem apex; for redifferential state: used as the plant hormone, bright condition, WP culture medium
# Experimental: A redifferentiation condition most suitable for the introduction of a gene into the Ficus stipulata Thunb. was examined, and the gene was tried introduced thereinto.
# First, the redifferentiation condition was examined. As the Ficus stipulata Thunb., one sterilized and aseptically subcultured was used. The Ficus stipulata Thunb. aseptically grown (4 to 6 weeks after implanting the cutting) used, and cut pieces were prepared from stem apexes, nodes and stem portions, and implanted in the culture medium. Six weeks later, the number and the shape of buds were observed. In culturing the Ficus stipulata Thunb., 1/3 of a block of Florialite (a mixture of vermiculite and cellulose fibers) was added into a test tube (30×200 mm), to which 15 ml of the MS culture medium or the WP culture medium was added. The test tube was closed with a polypropylene cap, which was placed in an autoclave.
# A braird appearing in the Ficus stipulata Thunb. having been aseptically subcultured in an Agripot (a plastic container) was cut by about 2 to 3 cm, its cut section was immersed into a 1 g/l solution (1 g/l) of 4-(3-indolyl)butyric acid, and the cut piece was implanted in the test piece thus prepared, and subjected to 4 to 8 week culturing.
# The culturing conditions were: atmospheric temperature 25° C., illumination intensity 30˜40 μEm^−2s^−1, a bright condition of 30˜40μEm^−2s^−1 for 15 hours and a dark condition of 1˜2μEm^−2s^−1 for 9 hours.
# The MS culture medium or the WP culture medium was used as a fundamental culture medium. Sucrose 2% was added into each of the culture media, thereby adjusting the pH values of the MS culture medium and the WP culture medium to 5.6 and 5.2, respectively. Further, Gellan Gum 3% was added to the culture medium, and it was autoclaved at 120° C. for 15 minutes, thereby preparing a solid culture medium. As plant hormones, […] (NAA), benzylaminopurine (BA), thidiazuron(TDZ), abscisic acid (ABA) and silver nitrate (AgNO3) were used.
structure (smiles),measurement,setting,value
"c1ccc(CNc2ncnc3nc[nH]c23)cc1 [BA, benzyladenine]",Number of cut piece* (cut pieces with polyblast formation × 100/cut piece),"[1]; BA 9 nM, TDZ 0 nM",50
same,Number of shoots/cut piece,"[1]; BA 9 nM, TDZ 0 nM",1.8 ± 2.4
same,Number of cut piece* (cut pieces with polyblast formation × 100/cut piece),"[1]; BA 22 nM, TDZ 0 nM",100
same,Number of shoots/cut piece,"[1]; BA 22 nM, TDZ 0 nM",3.5 ± 0.6
same,Number of cut piece* (cut pieces with polyblast formation × 100/cut piece),"[1]; BA 36 nM, TDZ 0 nM",100
same,Number of shoots/cut piece,"[1]; BA 36 nM, TDZ 0 nM",2.5 ± 1.0
same,Number of cut piece* (cut pieces with polyblast formation × 100/cut piece),"[1]; BA 44 nM, TDZ 0 nM",100
same,Number of shoots/cut piece,"[1]; BA 44 nM, TDZ 0 nM",3.8 ± 0.5
same,induction of the Ficus stipulata Thunb. (polyblast formation / redifferentiation),[1],could be induced at a high probability
same,Number of cut pieces* in which polyflasts were formed at a stem apex,"[2]; BA 8.9 nM, TDZ 0 nM",2
same,Number of buds formed,"[2]; BA 8.9 nM, TDZ 0 nM",1.8 ± 2.4
same,Number of cut pieces* in which polyflasts were formed at a stem apex,"[2]; BA 22.2 nM, TDZ 0 nM",4
same,Number of buds formed,"[2]; BA 22.2 nM, TDZ 0 nM",3.5 ± 0.6
same,Number of cut pieces* in which polyflasts were formed at a stem apex,"[2]; BA 35.5 nM, TDZ 0 nM",4
same,Number of buds formed,"[2]; BA 35.5 nM, TDZ 0 nM",2.5 ± 1.0
same,Number of cut pieces* in which polyflasts were formed at a stem apex,"[2]; BA 44.4 nM, TDZ 0 nM",4
same,Number of buds formed,"[2]; BA 44.4 nM, TDZ 0 nM",3.8 ± 0.5
same,redifferential state,[2],good redifferential state
"O=C(Nc1ccccc1)Nc1cnns1 [TDZ, thidiazuron]",Number of cut piece* (cut pieces with polyblast formation × 100/cut piece),"[1]; BA 0 nM, TDZ 1 nM",100
same,Number of shoots/cut piece,"[1]; BA 0 nM, TDZ 1 nM",1.5 ± 1.0
same,Number of cut piece* (cut pieces with polyblast formation × 100/cut piece),"[1]; BA 0 nM, TDZ 1 × 10^2 nM",100
same,Number of shoots/cut piece,"[1]; BA 0 nM, TDZ 1 × 10^2 nM",2.5 ± 0.6
same,Number of cut piece* (cut pieces with polyblast formation × 100/cut piece),"[1]; BA 0 nM, TDZ 1 × 10^4 nM",100
same,Number of shoots/cut piece,"[1]; BA 0 nM, TDZ 1 × 10^4 nM",1.5 ± 1.0
same,induction of the Ficus stipulata Thunb. (polyblast formation / redifferentiation),[1],could be induced at a high probability
same,Number of cut pieces* in which polyflasts were formed at a stem apex,"[2]; BA 0 nM, TDZ 1 nM",4
same,Number of buds formed,"[2]; BA 0 nM, TDZ 1 nM",1.5 ± 1.0
same,Number of cut pieces* in which polyflasts were formed at a stem apex,"[2]; BA 0 nM, TDZ 10^2 nM",4
same,Number of buds formed,"[2]; BA 0 nM, TDZ 10^2 nM",2.5 ± 0.6
same,Number of cut pieces* in which polyflasts were formed at a stem apex,"[2]; BA 0 nM, TDZ 10^4 nM",4
same,Number of buds formed,"[2]; BA 0 nM, TDZ 10^4 nM",1.5 ± 1.0
same,redifferential state,[2],good redifferential state
